Structures are written as SMILES. pEC50: −log10 of the molar value.

One experiment deals with Wnt/β-catenin signaling pathway (Wnt-responsive SP5 promoter luciferase reporter in SW480 cells). The experiment in a line: Wnt reporter (SP5 promoter-firefly luciferase) activation assay in SW480 cells. It counts as cell-based. The following applies: Homo sapiens; SW480 colon cancer cells with SP5 promoter luciferase reporter; 24 h after compound addition; normalized to DMSO; concentration at half maximal activation. The procedure:
Compounds that enhance the Wnt activity, or Activators, were assayed as follows. Reporter cell lines were generated by stably transducing cells of colon cancer cell lines (with a lentiviral construct that included a Wnt-responsive promoter driving expression of the firefly luciferase gene).
Lentiviral constructs were made in which the SP5 promoter, a promoter having eight TCF/LEF binding sites derived from the SP5 promoter, was linked upstream of the firefly luciferase gene. The lentiviral constructs also included a hygromycin resistance gene as a selectable marker. The SP5 promoter construct was used to transduce SW480 cells, a colon cancer cell line having a mutated APC gene that generates a truncated APC protein, leading to de-regulated accumulation of β-catenin.
Cultured SW480 cells bearing a reporter construct were distributed at approximately 10,000 cells per well into 384- or 96-well multiwell plates. Compounds from a small molecule compound library were then added to the wells in half-log dilutions using a maximum concentration of three or ten micromolar. A series of control wells for each cell type received only buffer and compound solvent DMSO. Twenty-four hours after the addition of compound, reporter activity for luciferase was assayed, for example, by addition of the BrightGlo luminescence reagent (Promega) and the Victor3 plate reader (Perkin Elmer). Readings were normalized to DMSO only treated cells, and any activities above DMSO were considered activation. Compounds were considered activators if reporter activities were 2× fold or greater than DMSO. EC50 is the concentration at half maximal activation.
As usually defined, the pEC50 is the negative decadic logarithm of the EC50, by convention in mol/L. In turn, `O=C(CCC(=O)c1ccc2c(c1)OCCO2)c1ccc(C(F)(F)F)cc1` [Compound 10, 1-(2,3-Dihydrobenzo[b][1,4]dioxin-6-yl)-4-(4-(trifluoromethyl)phenyl)butane-1,4-dione] gave a negative-log EC50 (pEC50) of less than 5.00.
The same measure, in the same setting: to `COc1ccc(C(=O)CCC(=O)c2ccncn2)cc1OC` [Compound 432, 1-(3,4-Dimethoxyphenyl)-4-(pyrimidin-4-yl)butane-1,4-dione] belongs 5.32; to `O=C(CCC(=O)c1ccco1)c1ccc2[nH]ncc2c1` [Compound 515, 1-(Furan-2-yl)-4-(1H-indazol-5-yl)butane-1,4-dione], 6.90; to `O=C(CCC(=O)c1ccco1)c1ccc2occc2c1` [Compound 462, 1-(Benzofuran-5-yl)-4-(furan-2-yl)butane-1,4-dione], 6.37.
The same measure, in the same setting: to `Cc1ccccc1C(=O)CCC(=O)c1ccccn1` [Compound 544, 1-(Pyridin-2-yl)-4-(o-tolyl)butane-1,4-dione] belongs 6.05; to `O=C(CCC(=O)c1ccccn1)c1ccc2c(c1)OC(F)(F)O2` [Compound 232, 1-(2,2-Difluorobenzo[d][1,3]dioxol-5-yl)-4-(pyridin-2-yl)butane-1,4-dione], 6.87; to `O=C(CCC(=O)c1ccccc1F)c1cccs1` [Compound 557, 1-(2-Fluorophenyl)-4-(thiophen-2-yl)butane-1,4-dione], 7.59.
The same measure, in the same setting: to `O=C(CCC(=O)c1ccc2c(c1)OC(F)(F)O2)c1ccccc1` [Compound 235, 1-(2,2-Difluorobenzo[d][1,3]dioxol-5-yl)-4-phenylbutane-1,4-dione] belongs 6.31.
The compound `O=C(CCC(=O)c1ccccc1F)c1ccc2c(c1)OCO2` [Compound 213, 1-(Benzo[d][1,3]dioxol-5-yl)-4-(2-fluorophenyl)butane-1,4-dione] gave a negative-log EC50 (pEC50) of 7.74.
Still for that read-out and setting: to `O=C(CCC(=O)c1c[nH]c2ccccc12)c1cccs1` [Compound 524, 1-(1H-Indol-3-yl)-4-(thiophen-2-yl)butane-1,4-dione] belongs 7.06.
Still for that read-out and setting: to `COc1ccccc1C(=O)CCC(=O)c1ccccn1` [Compound 547, 1-(2-Methoxyphenyl)-4-(pyridin-2-yl)butane-1,4-dione] belongs less than 5.00; to `COc1ccc(C(=O)CCC(=O)c2cccnc2)cc1OC` [Compound 208, 1-(3,4-Dimethoxyphenyl)-4-(pyridin-3-yl)butane-1,4-dione], less than 5.00.
`O=C(CCC(=O)c1ccccc1F)c1ccc2ocnc2c1` [Compound 291, 1-(Benzo[d]oxazol-5-yl)-4-(2-fluorophenyl)butane-1,4-dione] gave a negative logarithm of the EC50 (pEC50) of 6.90.
Compound `O=C(CCC(=O)c1ccc2c(c1)CCCO2)c1ccccc1` [Compound 80, 1-(Chroman-6-yl)-4-phenylbutane-1,4-dione] showed a pEC50 of 8.00.
Compound `O=C(CCC(=O)c1ccccc1C(F)(F)F)c1ccc2c(c1)OCO2` [Compound 210, 1-(Benzo[d][1,3]dioxol-5-yl)-4-(2-(trifluoromethyl)phenyl)butane-1,4-dione] gave a negative-log EC50 (pEC50) of 8.70.
Still for that read-out and setting: to `Cc1ccccc1C(=O)CCC(=O)c1c[nH]c2ccccc12` [Compound 518, 1-(1H-Indol-3-yl)-4-(o-tolyl)butane-1,4-dione] belongs 6.19; to `COc1ccccc1C(=O)CCC(=O)c1ccc2sccc2c1` [Compound 307, 1-(Benzo[b]thiophen-5-yl)-4-(2-methoxyphenyl)butane-1,4-dione], 7.26; to `O=C(CCC(=O)c1ccco1)c1ccccn1` [Compound 554, 1-(Furan-2-yl)-4-(pyridin-2-yl)butane-1,4-dione], less than 5.00.
`COc1ccc(C(=O)CCC(=O)c2n[nH]c3ccccc23)cc1` [Compound 334, 1-(1H-Indazol-3-yl)-4-(4-methoxyphenyl)butane-1,4-dione] gave a negative-log EC50 (pEC50) of less than 5.00.
The same measure, in the same setting: to `O=C(CCC(=O)c1ccc2[nH]cnc2c1)c1ccccc1` [Compound 274, 1-(1H-Benzo[d]imidazol-5-yl)-4-phenylbutane-1,4-dione] belongs 5.17; to `Cc1ccccc1C(=O)CCC(=O)c1ccc2c(c1)OCO2` [Compound 368, 1-(Benzo[d][1,3]dioxol-5-yl)-4-(o-tolyl)butane-1,4-dione], 7.80.
As for `O=C(CCC(=O)c1c[nH]c2ccccc12)c1ccccc1C(F)(F)F` [Compound 314, 1-(1H-Indol-3-yl)-4-(2-(trifluoromethyl)phenyl)butane-1,4-dione], the negative logarithm of the EC50 (pEC50) was 7.80.
Still for that read-out and setting: to `O=C(CCC(=O)c1c[nH]c2ccccc12)c1ccccc1F` [Compound 317, 1-(2-Fluorophenyl)-4-(1H-indol-3-yl)butane-1,4-dione] belongs less than 5.00; to `O=C(CCC(=O)c1ncccn1)c1ccc2c(c1)OCO2` [Compound 372, 1-(Benzo[d][1,3]dioxol-5-yl)-4-(pyrimidin-2-yl)butane-1,4-dione], 7.01.
On the same count and under the same terms, to `O=C(CCC(=O)c1ccccc1C(F)(F)F)c1ccc2ocnc2c1` [Compound 288, 1-(Benzo[d]oxazol-5-yl)-4-(2-(trifluoromethyl)phenyl)butane-1,4-dione] belongs less than 5.00.
For `O=C(CCC(=O)c1n[nH]c2ccccc12)c1ccccc1C(F)(F)F` [Compound 326, 1-(1H-Indazol-3-yl)-4-(2-(trifluoromethyl)phenyl)butane-1,4-dione], the pEC50 is 6.93.
On the same count and under the same terms, to `O=C(CCC(=O)c1ccccc1C(F)(F)F)c1ccc2occc2c1` [Compound 275, 1-(Benzofuran-5-yl)-4-(2-(trifluoromethyl)phenyl)butane-1,4-dione] belongs 8.05; to `O=C(CCC(=O)c1ccccc1F)c1ccccn1` [Compound 538, 1-(2-Fluorophenyl)-4-(pyridin-2-yl)butane-1,4-dione], 7.20; to `O=C(CCC(=O)c1ccco1)c1ccc2c(c1)OCO2` [Compound 375, 1-(Benzo[d][1,3]dioxol-5-yl)-4-(furan-2-yl)butane-1,4-dione], 7.15.
The same measure, in the same setting: to `O=C(CCC(=O)c1ccc2c(c1)SCCO2)c1ccc(C(F)(F)F)cc1` [Compound 18, 1-(2,3-Dihydrobenzo[b][1,4]oxathiin-6-yl)-4-(4-(trifluoromethyl)phenyl)butane-1,4-dione] belongs less than 5.00.
The same measure, in the same setting: to `Cc1ccc(C(=O)CCC(=O)c2ccc3[nH]ncc3c2)cc1` [Compound 503, 1-(1H-Indazol-5-yl)-4-(p-tolyl)butane-1,4-dione] belongs 6.31; to `COc1ccc(C(=O)CCC(=O)c2cncnc2)cc1OC` [Compound 430, 1-(3,4-Dimethoxyphenyl)-4-(pyrimidin-5-yl)butane-1,4-dione], less than 5.00; to `Cc1ccc(C(=O)CCC(=O)c2ccc3[nH]ccc3c2)cc1` [Compound 447, 1-(1H-Indol-5-yl)-4-(p-tolyl)butane-1,4-dione], less than 5.00.
Compound `Cc1ccccc1C(=O)CCC(=O)c1ccc2c(c1)OCCO2` [Compound 342, 1-(2,3-Dihydrobenzo[b][1,4]dioxin-6-yl)-4-(o-tolyl)butane-1,4-dione] gave a pEC50 of 8.05.
On the same count and under the same terms, to `O=C(CCC(=O)c1cccc2c1OCCO2)c1ccc(C(F)(F)F)cc1` [Compound 238, 1-(2,3-Dihydrobenzo[b][1,4]dioxin-5-yl)-4-(4-(trifluoromethyl)phenyl)butane-1,4-dione] belongs less than 5.00.
`O=C(CCC(=O)c1n[nH]c2ccccc12)c1ccccc1F` [Compound 329, 1-(2-Fluorophenyl)-4-(1H-indazol-3-yl)butane-1,4-dione] gave a pEC50 of 7.05.
On the same count and under the same terms, to `O=C(CCC(=O)c1ccccc1C(F)(F)F)c1ccc2c(c1)CCCO2` [Compound 68, 1-(Chroman-6-yl)-4-(2-(trifluoromethyl)phenyl)butane-1,4-dione] belongs 8.22; to `O=C(CCC(=O)c1cccc2c1OCCO2)c1cccc(F)c1` [Compound 240, 1-(2,3-Dihydrobenzo[b][1,4]dioxin-5-yl)-4-(3-fluorophenyl)butane-1,4-dione], 6.17.
The same measure, in the same setting: to `COc1ccc(C(=O)CCC(=O)c2ncccn2)cc1OC` [Compound 431, 1-(3,4-Dimethoxyphenyl)-4-(pyrimidin-2-yl)butane-1,4-dione] belongs less than 5.00; to `COc1ccccc1C(=O)CCC(=O)c1n[nH]c2ccccc12` [Compound 332, 1-(1H-Indazol-3-yl)-4-(2-methoxyphenyl)butane-1,4-dione], 6.17; to `O=C(CCC(=O)c1ccccc1C(F)(F)F)c1ccc2sccc2c1` [Compound 301, 1-(Benzo[b]thiophen-5-yl)-4-(2-(trifluoromethyl)phenyl)butane-1,4-dione], 7.41.
On the same count and under the same terms, to `Cc1ccccc1C(=O)CCC(=O)c1ccc2[nH]ccc2c1` [Compound 445, 1-(1H-indol-5-yl)-4-(o-tolyl)butane-1,4-dione] belongs 8.00.

The same experiment, now with this note: SW480 colon cancer cells with SP5 promoter luciferase reporter; 24 h after compound addition; normalized to DMSO; concentration at half maximal activation.
Consider `O=C(CC(=O)c1cc(O)c2c(c1O)OCCO2)c1ccccc1` [Compound 3, 1-(5,8-dihydroxy-2,3-dihydrobenzo[b][1,4]dioxin-6-yl)-3-phenylpropane-1,3-dione], for which the negative logarithm of the EC50 (pEC50) was less than 5.00.
